Laboratory results from patent US5252575A, “Antiviral purine derivatives with improved gastrointestinal absorption” (Beecham Group p.l.c., priority 1992, dated 1993).
Where two headings read alike, the source gives them in different places.

Tests used:
[1] = Further evaluation of BRL55792 as oral prodrug of BRL44385: AUC in blood of squirrel monkeys (Table 2); type: in vivo; settings: 110 umol/kg, squirrel monkey, single oral dose 0.11 mmol/kg, 0-8 h, 3 animals
Protocol: |Further evaluation of BRL55792 as a potential oral prodrug of BRL44385 in |rats and squirrel monkeys | ^a Compounds were administered as a single oral dose at either 0.2 | mmol/kg (equivalent to 44.5 mg/kg free BRL44385) to rats with an | indwelling aortic cannula or 0.11 mmol/kg (equivalent to 25 mg/kg free | BRL44385) to squirrel monkeys. Sequential blood samples were collected up | to 8 h after compound administration. Following treatment as described in | table 1, the samples were assayed for BRL55792, BRL44385 and intermediate | matabolites. | ^b Mean areaunder-the-curve values were calculated from blood | concentrationtime profiles from 3 animals by the trapezoidal rule (0-6 h | for rats and 0-8 h for squirrel monkeys). | ^c AUC of BRL44385 from prodrug/AUC of BRL44385 from oral BRL44385

[2] = Concentrations of BRL44385 and its prodrugs detected in the blood of mice after oral administration (Table 1); type: in vivo, female Balb/c mice; settings: mouse, 200 umol/kg, total 9-alkoxypurines, 0.2 mmol/kg oral gavage
Protocol: |Concentrations of BRL44385 and its Prodrugs Detected in the |Blood of Mice after Oral Administration of |9-(Alkoxymethoxypropoxy)purines^a | ^a Compounds were administered as single doses of 0.2 mmol/kg in 0.1 | ml of 1% (carboxymethyl)cellulose by oral gavage to female Balb/c mice | weighing approximately 20 g. Food was withheld for 18 h prior to the star | of the experiment. Blood was collected by cardiac puncture using | heparinised syringes 15, 60 and 180 min after dosing. Equal volumes (0.2 | ml) from three mice were pooled at each time point and 0.6 ml of 16% | trichloroacetic acid was added. After centrifugation, 0.5 ml of | supernatent was added to 0.1 ml of saturated aqueous NaHCO3 followed | by the addition of 0.6 ml of 0.4M NH4 OAc (pH 6.0) and the mixture | analysed by HPLC. | ^b 9-Alkoxypurine concentrations <2 μM were detected in the blood | 180 min after dosing.

SMILES | AUC at 8 h ([1]; analyte BRL55792, read-out: Mean Area-under-the-curve ± SEM for BRL 55792) [µM·h] | concentration at 0.25 h ([2]; 15 min, read-out: Concn in blood at time (min) after dosing: total 9-alkoxypurines, 15) [µM] | concentration at 1 h ([2]; 60 min, read-out: Concn in blood at time (min) after dosing: total 9-alkoxypurines, 60) [µM] | AUC at 8 h ([1]; analyte BRL44385, read-out: Mean Area-under-the-curve ± SEM for BRL 44385) [µM·h]
CC(C)OCOCCCOn1cnc2cnc(N)nc21 [Example 1, 2-Amino-9-[3-(isopropoxymethoxy)propoxy)purine] | 13 ± 5.7 |  |  | 
Nc1nc(O)c2ncn(OCCCO)c2n1 [Example E1, 9-(3-hydroxyprop-1-oxy)guanine] |  | 8.9 | 4 | 13 ± 2.4
